pKi: −log10 of the molar value. Counter-ions that a name gives are not always drawn.
Legend:
[1] = molecular target: T1, human gene recombinant 5-HT7 receptor expressed in CHO cells (Homo sapiens, UniProt P34969); assay: Binding affinity for the 5-HT7 serotonin receptor ([3H]LSD radioligand)
T1 construct: expressed in transfected cells; host or cells: CHO cells (membrane preparation)
In short: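 Membranes from CHO cells expressing recombinant human 5-HT7 incubated with 1 nM [3H]LSD and test compound in 50 mM Tris-HCl pH 7.4, 10 mM MgCl2, 0.1 mM EDTA, 90 min at 25° C; filtration and scintillation counting. Nonspecific binding with mianserin; Ki by nonlinear regression over 10-11 concentrations; % inhibition at 10 μM.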

5-HT1E = 5-HT1E (Homo sapiens, UniProt P28566); assay: 5-HT1E receptor inhibition (Table 1); format: binding
5-HT2C = molecular target: T2, 5-HT2C (Homo sapiens, UniProt P28335); assay: 5-HT2C receptor inhibition/binding (Tables 1-3)
T2 sequence (P28335 33-458): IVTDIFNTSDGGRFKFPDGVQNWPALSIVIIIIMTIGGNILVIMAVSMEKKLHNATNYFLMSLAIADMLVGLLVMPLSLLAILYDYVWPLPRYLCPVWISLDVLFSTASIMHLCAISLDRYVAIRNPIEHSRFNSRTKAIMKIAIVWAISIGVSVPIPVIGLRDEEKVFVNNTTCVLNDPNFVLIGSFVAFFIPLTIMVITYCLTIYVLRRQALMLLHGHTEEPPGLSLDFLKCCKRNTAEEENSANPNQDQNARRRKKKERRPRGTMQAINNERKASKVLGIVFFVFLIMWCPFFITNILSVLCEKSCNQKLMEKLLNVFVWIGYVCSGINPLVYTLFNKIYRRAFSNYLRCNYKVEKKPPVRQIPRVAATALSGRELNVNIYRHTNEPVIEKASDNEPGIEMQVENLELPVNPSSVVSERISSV

Rats = assay: Antagonism against migraine: leakage of fluorescent protein (FITC-BSA) from meningeal vessels; format: in vivo; details: 5 mg/kg to 20 mg/kg
Protocol: It is known that inflammatory proteins leaked from meningeal vessels by 5-HT are implicated in causing migraine. The amount of the proteins leaked in the presence of the compound of Example 2.10 was measured and the preventive effect of the compound on migraine was assessed by a partial modification of the method described in the literature [Rachel A. Spokes, Vicki C. Middlefell, European Journal of Pharmacology (1995) 281, 75-79]. SB-269970, which is known as a 5-HT7 receptor antagonizing compound (J. Med. Chem. (2000) 43, 342-345), was used as a comparative compound. A negative control free of […] was prepared. The fluorescence intensity of the negative control was defined as a reference value. As a positive control, physiological saline was added instead of the compound of Example 2-10.
Rats (350-450 g) were administered urethane (1.5 g/kg) intraperitoneally. 50 mg/kg of a fluorescent protein (FITC-BSA) was administered intravenously through a cannula introduced into the saphenous vein, and 1 μM […] was administered intravenously. SB-269970 and the compound of Example 2.10 were administered intraperitoneally. The cerebral lobes were separated and the meninges were drawn from each rat. The meninges were allowed to stand at 37° C. for 16 h in the presence of physiological saline at pH 11, followed by centrifugation. The supernatant was plated on plates. The fluorescence intensity was measured using a fluorescence leader (excitation wavelength 485 nm, […] wavelength 530 nm) and the meninges were weighed. The fluorescence intensity per mg of the meningeal proteins was calculated.

5-HT6 = 5-HT6 (Homo sapiens, UniProt P50406); assay: 5-HT6 receptor inhibition/binding (Tables 2-3); details: 10 μM
5-HT1A = molecular target: T3, 5-HT1A (Homo sapiens, UniProt P08908); assay: 5-HT1A receptor inhibition (Table 3); format: binding
T3 sequence (P08908 1-422): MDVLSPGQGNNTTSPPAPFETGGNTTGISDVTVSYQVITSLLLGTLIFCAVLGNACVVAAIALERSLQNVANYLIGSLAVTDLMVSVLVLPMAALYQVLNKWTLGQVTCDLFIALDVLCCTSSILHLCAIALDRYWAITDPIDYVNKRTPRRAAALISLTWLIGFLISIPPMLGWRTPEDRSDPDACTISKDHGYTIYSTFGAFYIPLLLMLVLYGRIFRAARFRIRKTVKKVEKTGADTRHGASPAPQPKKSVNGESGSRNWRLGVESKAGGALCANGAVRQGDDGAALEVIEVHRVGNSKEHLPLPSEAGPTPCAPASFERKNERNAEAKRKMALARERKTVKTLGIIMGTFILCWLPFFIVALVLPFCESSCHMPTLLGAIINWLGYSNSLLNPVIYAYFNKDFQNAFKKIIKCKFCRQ

T1 sequence (P34969 whole entry): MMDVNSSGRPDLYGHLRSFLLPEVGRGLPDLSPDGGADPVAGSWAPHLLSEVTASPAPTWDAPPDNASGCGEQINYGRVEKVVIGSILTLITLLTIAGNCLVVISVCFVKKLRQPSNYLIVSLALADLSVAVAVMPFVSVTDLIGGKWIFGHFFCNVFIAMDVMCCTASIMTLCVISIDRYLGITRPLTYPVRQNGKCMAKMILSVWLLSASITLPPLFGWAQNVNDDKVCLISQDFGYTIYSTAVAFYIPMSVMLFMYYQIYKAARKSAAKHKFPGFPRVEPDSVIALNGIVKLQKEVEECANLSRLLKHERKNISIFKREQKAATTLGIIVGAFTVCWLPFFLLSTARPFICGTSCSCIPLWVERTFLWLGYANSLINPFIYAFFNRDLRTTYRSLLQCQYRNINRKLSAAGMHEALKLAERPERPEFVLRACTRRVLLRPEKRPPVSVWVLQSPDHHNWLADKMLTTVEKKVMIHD
5-HT6, sequence (P50406 whole entry, species assumed): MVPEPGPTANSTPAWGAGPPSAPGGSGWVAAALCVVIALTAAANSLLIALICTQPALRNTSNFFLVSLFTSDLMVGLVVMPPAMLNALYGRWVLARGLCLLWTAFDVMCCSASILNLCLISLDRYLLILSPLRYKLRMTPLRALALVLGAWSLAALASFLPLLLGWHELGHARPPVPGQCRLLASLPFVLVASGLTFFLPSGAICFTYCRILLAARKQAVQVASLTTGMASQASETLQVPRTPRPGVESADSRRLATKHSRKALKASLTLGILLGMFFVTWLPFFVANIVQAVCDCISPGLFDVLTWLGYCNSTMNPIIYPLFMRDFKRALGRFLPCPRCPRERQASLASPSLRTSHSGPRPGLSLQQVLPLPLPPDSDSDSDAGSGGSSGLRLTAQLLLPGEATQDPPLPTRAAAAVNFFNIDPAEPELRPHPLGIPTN
5-HT1E, sequence (P28566 whole entry, species assumed): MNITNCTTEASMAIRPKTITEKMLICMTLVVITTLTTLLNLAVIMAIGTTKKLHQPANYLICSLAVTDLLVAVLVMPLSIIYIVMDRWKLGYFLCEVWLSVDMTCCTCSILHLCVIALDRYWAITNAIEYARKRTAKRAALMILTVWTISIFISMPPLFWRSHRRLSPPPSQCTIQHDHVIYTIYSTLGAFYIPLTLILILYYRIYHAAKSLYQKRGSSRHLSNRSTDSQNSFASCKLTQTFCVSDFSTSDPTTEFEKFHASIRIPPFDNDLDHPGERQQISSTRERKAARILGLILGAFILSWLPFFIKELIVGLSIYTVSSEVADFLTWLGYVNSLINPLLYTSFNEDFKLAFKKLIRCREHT

Row | SMILES | inhibition at 10 µM [1] [%] | inhibition at 10 µM (5-HT1E) [%] | pKi (5-HT2C) | inhibition at 10 µM (5-HT2C) [%] | protein leakage vs reference value (Rats) | pKi [1] | inhibition at 10 µM (5-HT6) [%] | inhibition at 10 µM (5-HT1A) [%]
1 | CC1CCN(CCCCCC(=O)n2c3ccccc3c3ccccc32)CC1 [Example 2.4, 1-(9H-carbazol-9-yl)-6-(4-methylpiperidin-1-yl)hexan-1-one] | 94.2 | -11.6 | 6.06 | 78.5 | suppressed to a level close to the reference value |  |  | 
2 | COc1ccccc1N1CCN(CCCCC(=O)n2c3ccccc3c3ccccc32)CC1 [Example 2.31, 1-(9H-carbazol-9-yl)-5-(4-(2-methoxyphenyl)piperazin-1-yl)pentan-1-one hydrochloride] | 99.6 |  |  | 62.6 | suppressed to a level close to the reference value | 7.52 | 44.4 | 103

Reference: US9663464B2, “Carbazole derivatives acting on 5-HT7 receptor” (KOREA INSTITUTE OF SCIENCE AND TECHNOLOGY, priority 2015, dated 2017)
